Where two headings read alike, the source gives them in different places.

For series [1], the system named is pancreatic cancer cells PANC-1 (ATCC CRL-1469). The series can be described thus: SRB (Sulforhodamine B) assay in PANC-1 cells. The series is classed as cell-based. Conditions: Homo sapiens, read-out: IC50 (PANC-1). As to the method:
(§1) FIGS. 1A-1B show the IC50 curves of the twelve investigational β-lactams in pancreatic cancer cells PANC-1 (ATCC CRL-1469) and normal pancreatic ductal epithelial cells (ATCC CRL-4038). The GraphPad Prism software was used to process the results. The IC50 values were determined by SRB (Sulforhodamine B) assay following standard procedure. PANC-1 cells were plated in 96 well plates and treated with 1, 10, 100, 1000 and 10,000 nM of each of the drugs in triplicate for 72 hrs. Cells were fixed, washed and stained with SRB dye, the stained cells were washed, and the dye solubilized. It was read using a plate reader at 565 nm. The IC50 values were calculated assuming that the 10 μM sample has reached saturation. Following similar way, IC50 values were determined for normal pancreatic ductal epithelial cells.
(§2) As mentioned earlier, PANC-1 is referred to generically as the “gold standard of pancreatic cancers” representing as it does almost total resistance to GEM, the first line treatment currently used in clinical situations. Pancreatic cancer cells PANC-1 (ATCC CRL-1469) and normal pancreatic ductal epithelial cells (ATCC CRL-4038) were used in this study. The GraphPad Prism software was used to process the results. […] Cells were fixed, washed and stained with SRB dye, the stained cells were washed, and the dye solubilized. It was read using a plate reader at 565 nm. The IC50 values were calculated assuming that the 10 μM sample has reached saturation. Following similar way, IC50 values were determined for normal pancreatic ductal epithelial cells.

In series [2] the test system is normal pancreatic ductal epithelial cells (ATCC CRL-4038). Put plainly: SRB (Sulforhodamine B) assay in normal pancreatic ductal epithelial cells. The following applies: Epithelial cell, read-out: IC50 (NPC). The series is classed as cell-based. The procedure: as §1, §2
The subject of another series is PANC-1 tumorspheres. The series can be described thus: 3D-tumorsphere formation assay. Conditions: for IC50: Homo sapiens, tumorspheres larger than 100 micrometers counted after 144 hrs. The series is classed as cell-based, human. As to the method:
Number of tumorspheres formed can be used to distinguish the efficacy of different anticancer drugs in a more physically acceptable method than 2D culture. Based on selectivity and toxicity towards PANC-1 cells in comparison to normal pancreatic ductal epithelial cells (Table D), six compounds (A, B, C, E, F, and G) were chosen for the 3D-tumorsphere formation assay. The assay was carried out by following the protocol developed by Johnson et al., (2013). PANC-1 cells (5000) were plated as single cells in Corning ultra-low attachment 24 well plates in 0.5 ml DMEM+10% FBS. The cells were grown in a humidified atmosphere of 5% CO2 for 168 hrs. 0.1 ml Media was added on 72nd and 144 hrs. The β-lactams were dissolved in DMSO and maintained at −20° C. On the day of assay, on the addition of media, the drugs were freshly diluted in media. The final concentrations of drugs were 0, 1 nM, 10 nM, 100 nM, 1 uM, 10 μM. After 144 hours the total number tumorspheres that were larger than 100 micrometers were counted in a field of 1 mm×1 mm at 10× magnification in a bright field microscope. The data was plotted and the IC50 value was calculated.
3D-tumorsphere formation assay is considered to be a fast and economical intermediary step between in vitro and in vivo biological evaluations. A tumorsphere is a solid, spherical formation developed from the proliferation of a single cancer stem/progenitor cell in 3D culture. These cells are easily distinguishable from single or aggregated as they appear to become fused together and individual cells cannot be appearing to become fused together and individual cells cannot be identified. The size can vary from less than 50 micrometers to 250 micrometers. The number of tumorspheres formed can be used to characterize the cancer stem cell population within different in vitro cultured cancer cell lines. The number of tumorspheres formed can also be used to distinguish the efficacy of different anticancer drugs in a more physically acceptable method than 2D culture. Based on selectivity and toxicity towards PANC-1 cells in comparison to normal pancreatic ductal epithelial cells (Table D), six compounds (A, B, C, E, F, and G) were chosen for the 3D-tumorsphere formation assay. The assay was carried out by following the protocol developed by Johnson et al., (2013). […] The below steps were followed to accomplish the assay. • 5000 PANC-1 cells were plated as single cells in Corning ultra-low attachment 24 well plates in 0.5 ml DMEM+10% FBS. • Cells were grown in a humidified atmosphere of 5% CO2 for 168 hrs. 0.1 ml Media was added on 72nd and 144 hrs. • Drugs were dissolved in DMSO and maintained at −20° C. On the day of assay, on the addition of media, the drugs were freshly diluted in media. • The final concentrations of drugs were 0, 1 nM, 10 nM, 100 nM, 1 μM, 10 μM. • After 144 hrs the total number tunorspheres that were larger than 100 micrometers were counted in a field of 1 mm×1 mm at 10× magnification in a bright field microscope. The data was plotted and the IC50 value was calculated.

A further series concerns HPAF-II. The series can be described thus: Cytotoxicity IC50 in HPAF-II cells. The series is classed as cell-based. The following applies: Homo sapiens; HPAF-II cell line; read-out: IC50 (mean ± standard error). From the text:
(§3) B. Cytotoxicity Studies: Determination of IC50 Values (Single Run) in Capan-2, HPAC. HPAF-II, and HS766T Cell Lines
(§4) Capan-2, HPAC. HPAF-H, and HS766T. The compounds A, D, E, G, and H were chosen randomly, out of twelve β-laclam molecules, to carry out this evaluation.

The next series relates to PANC-1 cells. The series can be described thus: Flow cytometric cell cycle analysis. Format: cell-based, human. Conditions: tested for 24, 48 and 72 hrs. As to the method:
The noise was cleared. […] After 72 hrs all the cells (including floaters) were collected, the adhered cells were trypsinized and collected as well. The cells were then centrifuged in a 50 mL centrifuge tube. The pellet was washed with PBS and reconstituted in 500 μL PBS. The cells were then fixed in ice cold ethanol by adding the ethanol dropwise while gently vortexing the cells. Stored at 4° C. for overnight. The cells were then centrifuged, and the pellet reconstituted in Guava cell cycle reagent and analyzed in a Guava flow cytometer. A similar experiment was conducted with normal pancreatic ductal epithelial cells (NPC) and the drug treatment was done according to the IC50 values observed in the 2D assay conducted on them (Table E). Please note that 2N represents G0/G1 and 4N for G2 phases.
After 72 hrs all the cells (including floaters) were collected, the adhered cells were trypsinized and collected as well. The cells were then centrifuged in a 50 mL centrifuge tube. The pellet was washed with PBS and reconstituted in 500 μL PBS. The cells were then fixed in ice cold ethanol by adding the ethanol dropwise while gently vortexing the cells. […] The cells were then centrifuged, and the pellet reconstituted in Guava cell cycle reagent and analyzed in a Guava flowcytometer. […] First set of data with PANC-1 cells were analyzed by using FlowJo software, the noise was cleared (FIG. 3). […]
A general note: A flow cytometer gives signals particle by particle.

The test system of another series is HS 766T. Put plainly: Cytotoxicity IC50 in HS 766T cells. The series is classed as cell-based. The following applies: Homo sapiens, Hs766T; HS 766T cell line; read-out: IC50 (mean ± standard error).
From the text: as §3, §4

Where [3] appears, read: PANC-1, 2D-culture, SRB, 72 hrs, average of 3 runs.
Setting [4] is: 2D-culture, SRB, average of 3 runs.

For orientation: melting point means the temperature of the solid-liquid transition. In turn, `CS(=O)(=O)O[C@@H]1C(=O)N(c2cc3c4ccccc4ccc3c3ccccc23)[C@H]1c1ccc(F)cn1` (racemic) [(±)-Trans-N-(chrysen-6-yl)-2-(5-fluoropyridin-2-yl)-4-oxoazetidin-3-yl methanesulfonate] displayed a melting point of 253 to 254 °C.
As usually defined, the IC50 is the concentration at which inhibition is half-maximal. With `O=C1[C@@H](OS(=O)(=O)C2CC2)[C@H](c2ccc(F)cn2)N1c1cc2c3ccccc3ccc2c2ccccc12` (racemic) [F, (±)-Trans-N-(chrysen-6-yl)-2-(5-fluoropyridin-2-yl)-4-oxoazetidin-3-yl cyclopropanesulfonate], the melting point was in the range of 180 to 181 °C. In series [1] (setting [3]), the 50% inhibitory concentration (IC50) is 27.2 nM. Also, the IC50 in series [2] (setting [4]) was 356 nM. For the same compound, in the series on PANC-1 tumorspheres, the “activity in 3D-tumorsphere formation assay compared with 2D-culture” value (“activity … compared with 2D-culture” below) is reported as “higher activity in 3D-tumorphere formation assay than 2D-culture” and inhibition was half-maximal at 19.1 nM (IC50).
Compound `CN(C)S(=O)(=O)O[C@@H]1C(=O)N(c2cc3c4ccccc4ccc3c3ccccc23)[C@H]1c1ccc(F)cn1` (racemic) [J, (±)-Trans-N-(chrysen-6-yl)-2-(5-fluoropyridin-2-yl)-4-oxoazetidin-3-yl dimethylsulfamate] gave a melting point of 196 to 198 °C. Further, the 50% inhibitory concentration (IC50) in series [1] (setting [3]) worked out at 212 nM. In addition, the half-inhibitory concentration (IC50) in series [2] (setting [4]) is 1050 nM.
Consider `N#CC1CN(S(=O)(=O)O[C@@H]2C(=O)N(c3cc4c5ccccc5ccc4c4ccccc34)[C@H]2c2ccc(F)cn2)C1` (racemic) [Compound C, (±)-Trans-N-(chrysen-6-yl)-2-(5-fluoropyridin-2-yl)-4-oxoazetidin-3-yl 3-cyanoazetidine-1-sulfonate], for which the melting point lay within 212 to 213 °C. Moreover, the half-maximal inhibitory concentration (IC50) in series [1] (setting [3]) was determined as 3.52 nM. The half-inhibitory concentration (IC50) in series [2] (setting [4]) stood at 42.5 nM. Also, in the series on PANC-1 tumorspheres, the “activity … compared with 2D-culture” value is “higher activity in 3D-tumorphere formation assay than 2D-culture” and the IC50 stood at 2.33 nM.
As for `O=C=NS(=O)(=O)O[C@@H]1C(=O)N(c2cc3c4ccccc4ccc3c3ccccc23)[C@H]1c1ccc(F)cn1` (racemic) [K, (±)-Trans-N-(chrysen-6-yl)-2-(5-fluoropyridin-2-yl)-4-oxoazetidin-3-yl sulfurisocyanatidate], the IC50 came out at 29.6 nM in series [1] (PANC-1, 72 h) and 416 nM in series [2].
In turn, `CN1CCN(S(=O)(=O)O[C@@H]2C(=O)N(c3cc4c5ccccc5ccc4c4ccccc34)[C@H]2c2ccc(F)cn2)CC1` (racemic) [G, (±)-Trans-N-(chrysen-6-yl)-2-(5-fluoropyridin-2-yl)-4-oxoazetidin-3-yl 4-methylpiperazine-1-sulfonate] returned a melting point of 146 to 147 °C. In the series on HPAF-II, the half-maximal inhibitory concentration (IC50) was determined as 1180 ± 260 nM. In addition, in series [1] (setting [3]), the IC50 came to 2.69 nM. In addition, the IC50 in series [2] (setting [4]) came to 8.43 nM.
`Cc1ccc(S(=O)(=O)O[C@@H]2C(=O)N(c3cc4c5ccccc5ccc4c4ccccc34)[C@H]2c2ccc(F)cn2)cc1` (racemic) [L, (±)-Trans-N-(chrysen-6-yl)-2-(5-fluoropyridin-2-yl)-4-oxoazetidin-3-yl 4-methylbenzenesulfonate]: the IC50 in series [1] (setting [3]) stood at 3.38 nM; in series [2] (setting [4]), 13.3 nM; in the series with PANC-1 tumorspheres, 4.57 nM. Moreover, the “time of maximum cell cycle blockage” value in the series on PANC-1 cells amounted to 72 h.
The compound `O=C1[C@@H](OS(=O)(=O)N2CCCC2)[C@H](c2ccc(F)cn2)N1c1cc2c3ccccc3ccc2c2ccccc12` (racemic) [Compound I, (±)-Trans-N-(chrysen-6-yl)-2-(5-fluoropyridin-2-yl)-4-oxoazetidin-3-yl pyrrolidine-1-sulfonate] returned a melting point of 205 to 206 °C. The concentration for half-maximal inhibition (IC50) in series [1] (setting [3]) was 58.6 nM. Also, in series [2] (setting [4]), the IC50 worked out at 201 nM.
For the compound `CC(C)N(C)S(=O)(=O)O[C@@H]1C(=O)N(c2cc3c4ccccc4ccc3c3ccccc23)[C@H]1c1ccc(F)cn1` (racemic) [E, (±)-Trans-N-(chrysen-6-yl)-2-(5-fluoropyridin-2-yl)-4-oxoazetidin-3-yl isopropyl(methyl)sulfamate], the melting point lay within 166 to 167 °C. Moreover, the IC50 with HPAF-II was 500 ± 160 nM. The IC50 with HS 766T amounted to 40 nM. Moreover, the half-inhibitory concentration (IC50) in series [1] (setting [3]) worked out at 8.65 nM. Further, the half-maximal inhibitory concentration (IC50) in series [2] (setting [4]) was 424 nM. In addition, in the series with PANC-1 tumorspheres, the “activity … compared with 2D-culture” value is recorded as “higher activity in 3D-tumorphere formation assay than 2D-culture” and the IC50 was found to be 6.25 nM.
In turn, `C[Si](C)(C)CCS(=O)(=O)O[C@@H]1C(=O)N(c2cc3c4ccccc4ccc3c3ccccc23)[C@H]1c1ccc(F)cn1` (racemic) [H, (±)-Trans-N-(chrysen-6-yl)-2-(5-fluoropyridin-2-yl)-4-oxoazetidin-3-yl 2-(trimethylsilyl)ethane-1-sulfonate] registered a melting point of 210 to 211 °C. In addition, the IC50 with HPAF-II is 660 ± 120 nM. Besides, the IC50 with HS 766T was 790 ± 120 nM. Also, in series [1] (setting [3]), the IC50 is 30.4 nM. The IC50 in series [2] (setting [4]) amounted to 48.5 nM.
For the compound `Cc1ccc(S(=O)(=O)O[C@@H]2C(=O)N(c3cc4c5ccccc5ccc4c4ccccc34)[C@H]2c2ccc(F)cn2)cc1` (racemic) [(±)-Trans-N-(chrysen-6-yl)-2-(5-fluoropyridin-2-yl)-4-oxoazetidin-3-yl 4-methylbenzenesulfonate], the melting point was 220 to 221 °C.

Values taken from US20210214341A1, “SUBSTITUTED PYRIDINYL AZETIDINONE DERIVATIVES FOR USE IN TREATING CANCER AND OTHER DISEASES” (The Board of Regents of the University of Texas System, priority 2018, published 2021).
